The results in this text go back to ChEMBL document CHEMBL1201862, “PubChem BioAssay data set” (2004).

Among the test systems are SNB-75; KM12; MCF7; MDA-MB-435; EKVX; CCRF-CEM; MDA-N; Hs-578T; SNB-19; NCI/ADR-RES; SF-295; NCI-H522; OVCAR-3; PC-3; COLO 205; SF-268; U-251; OVCAR-5.
Holding throughout (test): inhibition of tumour cell growth, NCI panel, 48 h

Each structure is given as a SMILES string.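 How tested: cells in 96-well plates exposed to compound for 48 hours at five concentrations. The concentration for 50% growth inhibition is given as GI50.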 Activity calls are given as the source filed them. No stated cut-off is given here; in the data, active = GI50 up to about 1.1 µM and inactive = higher.

Regarding `CCOC(=O)CSC1NC(C(=O)OC)CC1OC` (stereo not drawn), the GI50 is > 100 µM (inactive) in the test with SNB-75; > 100 µM (inactive) with KM12; > 100 µM (inactive) in the test on MCF7; > 100 µM (inactive) in the test with MDA-MB-435; > 100 µM (inactive) in the test on EKVX; 75 µM (inactive) in the test on CCRF-CEM. The GI50 in the test with MDA-N, with Hs-578T, with SNB-19, with NCI/ADR-RES, in the test with SF-295 and in the test on NCI-H522 was > 100 µM (inactive) each time. The GI50 in the test with OVCAR-3, with PC-3, with COLO 205, with SF-268, in the test with U-251 and in the test on OVCAR-5 was > 100 µM (inactive) throughout.
On to `N#Cc1c(Cl)nc2ccccc2c1N=[N+]=[N-]`, for which the GI50 with SNB-75 was 8.67 µM (inactive); in the test on KM12 it was 6.4 µM (inactive); in the test on MCF7, 4.56 µM (inactive); in the test on MDA-MB-435, 7.38 µM (inactive); in the test on EKVX, 2.25 µM (inactive); with CCRF-CEM it was 1.41 µM (inactive). The GI50 in the test on MDA-N is 13.3 µM (inactive); with Hs-578T, 5.81 µM (inactive); with SNB-19, 14.8 µM (inactive); in the test on NCI/ADR-RES it was 9.33 µM (inactive); with SF-295, 8.55 µM (inactive); in the test with NCI-H522, 1.99 µM (inactive). Also, the GI50 with OVCAR-3 was 1.78 µM (inactive); in the test on PC-3, 2.65 µM (inactive); in the test with COLO 205 it was 1.88 µM (inactive); with SF-268, 3.24 µM (inactive); with U-251, 5.19 µM (inactive); in the test on OVCAR-5, 6.61 µM (inactive).
With `O=c1[nH]c(-c2ccccc2)nc2c1sc1nc3ccccc3n12`, the GI50 with SNB-75 is > 63.1 µM (inactive); with KM12 it was > 92.7 µM (inactive); in the test on MCF7 it was > 100 µM (inactive); with MDA-MB-435 it was > 100 µM (inactive); in the test on EKVX, > 100 µM (inactive); in the test with CCRF-CEM it was > 100 µM (inactive). The GI50 with MDA-N was > 100 µM (inactive); with Hs-578T, 26.7 µM (inactive); in the test on SNB-19, 98.4 µM (inactive); in the test on NCI/ADR-RES it was > 100 µM (inactive); with SF-295 it was > 100 µM (inactive); with NCI-H522, > 100 µM (inactive). The GI50 with OVCAR-3 was > 100 µM (inactive); with PC-3 it was > 100 µM (inactive); in the test with COLO 205, > 100 µM (inactive); in the test on SF-268 it was 78.2 µM (inactive); in the test with U-251 it was > 87.7 µM (inactive); in the test with OVCAR-5 it was > 100 µM (inactive).
Take `COc1cccc2c3cccc(OC)c3c3[nH]cnc3c12`: the GI50 with SNB-75 was 4.3 µM (inactive); with KM12, 2.02 µM (inactive); in the test with MCF7, 1.58 µM (inactive); in the test on MDA-MB-435, 2.06 µM (inactive); in the test with EKVX, 14.7 µM (inactive); in the test with CCRF-CEM, 0.923 µM (active). The GI50 in the test with MDA-N is 1.85 µM (inactive); in the test on Hs-578T, 0.394 µM (active); with SNB-19, 5.01 µM (inactive); in the test on NCI/ADR-RES, 3.09 µM (inactive); in the test on SF-295, 4.78 µM (inactive); with NCI-H522 it was 1.55 µM (inactive). Also, the GI50 is 13.9 µM (inactive) in the test with OVCAR-3; 2.03 µM (inactive) in the test on PC-3; 16.5 µM (inactive) with COLO 205; 4.54 µM (inactive) in the test on SF-268; 1.67 µM (inactive) with U-251; 5.37 µM (inactive) in the test with OVCAR-5.
As for `CN(C)/N=N/c1nc2c(c(=O)n(C)c(=O)n2C)n1CC(O)CO` (stereo not drawn), the GI50 with SNB-75 is > 100 µM (inactive); in the test with KM12, > 100 µM (inactive); in the test with MCF7 it was 10.6 µM (inactive); in the test on MDA-MB-435 it was > 100 µM (inactive); with EKVX it was > 100 µM (inactive); in the test on CCRF-CEM it was > 100 µM (inactive). In addition, the GI50 in the test on MDA-N, with Hs-578T, in the test on SNB-19, in the test with NCI/ADR-RES, with SF-295 and with NCI-H522 was > 100 µM (inactive) throughout. Also, the GI50 in the test on OVCAR-3, in the test on PC-3, in the test on COLO 205, in the test with SF-268, in the test on U-251 and in the test with OVCAR-5 was > 100 µM (inactive) throughout.
Consider `Nc1ccn(C2CCC(CO)O2)c(=S)n1` (stereo not drawn), for which the GI50 in the test with SNB-75 is 89.5 µM (inactive); in the test with KM12 it was > 100 µM (inactive); in the test with MCF7, > 100 µM (inactive); in the test with MDA-MB-435 it was > 100 µM (inactive); in the test with EKVX, > 100 µM (inactive); in the test on CCRF-CEM, > 100 µM (inactive). Also, the GI50 in the test on MDA-N, with Hs-578T, with SNB-19, with NCI/ADR-RES, in the test on SF-295 and with NCI-H522 was > 100 µM (inactive) in each case. Moreover, the GI50 in the test on OVCAR-3, with PC-3, in the test with COLO 205, in the test on SF-268, with U-251 and with OVCAR-5 was > 100 µM (inactive) in each case.
With `Cc1cc(C)nc(SC(C)C(=O)N/N=C/c2ccc(OCc3ccccc3)cc2)n1` (stereo not drawn), the GI50 with SNB-75 was 33 µM (inactive); in the test on KM12, > 100 µM (inactive); with MCF7, 21 µM (inactive); with MDA-MB-435, 26.7 µM (inactive); in the test with EKVX, 25.2 µM (inactive); with CCRF-CEM it was 19.1 µM (inactive). In addition, the GI50 with MDA-N was 22.8 µM (inactive); in the test on Hs-578T, 52 µM (inactive); with SNB-19 it was 48.5 µM (inactive); in the test with NCI/ADR-RES, 21.8 µM (inactive); in the test with SF-295 it was 19.1 µM (inactive); with NCI-H522, 15.3 µM (inactive). The GI50 in the test with OVCAR-3 was 19.7 µM (inactive); in the test with PC-3, 22.4 µM (inactive); in the test with COLO 205, 20.8 µM (inactive); with SF-268 it was 40.6 µM (inactive); with U-251, 17 µM (inactive); in the test with OVCAR-5, 78.9 µM (inactive).
Consider `C=CCC1(OCc2ccccc2)C(=O)C(=O)OC1C1COC(C)(C)O1` (stereo not drawn), for which the GI50 with SNB-75, with KM12, in the test with MCF7, with MDA-MB-435, in the test with EKVX and in the test with CCRF-CEM was > 100 µM (inactive) in each case. Further, the GI50 in the test with MDA-N, in the test on Hs-578T, in the test on SNB-19, in the test on NCI/ADR-RES, in the test on SF-295 and with NCI-H522 was > 100 µM (inactive) in each case. The GI50 in the test on OVCAR-3, in the test on PC-3, in the test on COLO 205, in the test on SF-268, with U-251 and with OVCAR-5 was > 100 µM (inactive) in each case.
As to `CC1=NN(c2ccccc2)C(=O)C1/N=N/c1ccc(S(N)(=O)=O)cc1` (stereo not drawn), the GI50 in the test with SNB-75, in the test on KM12, in the test on MCF7, with MDA-MB-435, in the test on EKVX and in the test with CCRF-CEM was > 100 µM (inactive) each time. Further, the GI50 in the test with MDA-N, with Hs-578T, in the test with SNB-19, with NCI/ADR-RES, in the test with SF-295 and in the test with NCI-H522 was > 100 µM (inactive) in each case. Moreover, the GI50 with OVCAR-3, in the test on PC-3, with COLO 205, in the test on SF-268, with U-251 and with OVCAR-5 was > 100 µM (inactive) in each case.
As to `O=C1NNC(=O)c2ccccc2SSc2ccccc2C(=O)NNC(=O)c2ccccc2SSc2ccccc21`, the GI50 in the test with SNB-75 was 40.1 µM (inactive); with KM12 it was 22.5 µM (inactive); in the test with MCF7, 6.05 µM (inactive); in the test with MDA-MB-435, 39 µM (inactive); in the test on EKVX it was 18.1 µM (inactive); in the test on CCRF-CEM, 1.26 µM (inactive). Also, the GI50 is 32 µM (inactive) with MDA-N; > 50 µM (inactive) in the test with Hs-578T; 25.9 µM (inactive) in the test with SNB-19; 17.8 µM (inactive) in the test with NCI/ADR-RES; 2.45 µM (inactive) in the test on SF-295; 35.5 µM (inactive) with NCI-H522. Moreover, the GI50 with OVCAR-3 was 16.9 µM (inactive); in the test on PC-3, 19.5 µM (inactive); in the test with COLO 205 it was 17.2 µM (inactive); with SF-268, 5.31 µM (inactive); with U-251 it was 17.3 µM (inactive); with OVCAR-5 it was 16.9 µM (inactive).
Turning to `COc1ccc(NC(=S)N/N=C2\C(=O)Nc3ccccc32)cc1`, the GI50 in the test on SNB-75 was 48 µM (inactive); with KM12 it was 13 µM (inactive); with MCF7 it was 9.48 µM (inactive); in the test with MDA-MB-435, 52.2 µM (inactive); in the test on EKVX, 9.14 µM (inactive); with CCRF-CEM it was 2.43 µM (inactive). The GI50 was 55.6 µM (inactive) in the test on MDA-N; 29.2 µM (inactive) in the test on Hs-578T; 41.7 µM (inactive) in the test with SNB-19; 2.07 µM (inactive) in the test with NCI/ADR-RES; 3.47 µM (inactive) in the test on SF-295; 18.7 µM (inactive) in the test on NCI-H522. Further, the GI50 in the test on OVCAR-3 was 28.8 µM (inactive); with PC-3 it was 19.2 µM (inactive); with COLO 205, 6.52 µM (inactive); in the test on SF-268, 17.5 µM (inactive); with U-251, 5.22 µM (inactive); in the test with OVCAR-5 it was 65 µM (inactive).
